Measured values from the supplement of paper PMC10307832.

Tests used:
Experiment in all cases: relative viability (nuclei count vs DMSO), 5 days (fraction); higher = more cells survive
[1] = test system: NCI-H1755
Summary of the method: (§1)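 Lung cancer cell lines were pin-tool dosed in 1536-well plates on the day after seeding, with either a lone drug or a fixed anchor-drug dose plus five library-drug doses (not always all listed) in √10 steps. Nuclei were counted on 4× images after 5 days. Relative viability is the ratio of treated-well to vehicle-well nuclei counts, with each value a median of duplicate plates.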

[2] = test system: NCI-H2009
Summary of the method: as §1

[3] = test system: NCI-H2228
Summary of the method: as §1

[4] = test system: NCI-H2347
Summary of the method: as §1

[5] = test system: NCI-H2405
Summary of the method: as §1

[6] = test system: NCI-H358
Summary of the method: as §1

[7] = test system: NCI-H520
Summary of the method: as §1

[8] = test system: NCI-H727
Summary of the method: as §1

[9] = test system: NCI-H838
Summary of the method: as §1

[10] = test system: SW 1573
Summary of the method: as §1

[11] = test system: UMC-11
Summary of the method: as §1

O=C(O)CCCCC(CCSCc1ccccc1)SCc1ccccc1 (stereo not given) [CPI-613] + C[C@]1(O)C[C@@H](c2nc(-c3ccc4ccc(-c5ccccc5)nc4c3)c3c(N)nccn32)C1 [Linsitinib] (partner 1 µM)
relative viability ([1]; first compound 5 µM): 0.991
relative viability ([1]; first compound 15.81 µM): 0.977
relative viability ([1]; first compound 50 µM): 0.9
relative viability ([1]; first compound 158.11 µM): 0.888
relative viability ([1]; first compound 500 µM): 0.152
relative viability ([2]; first compound 5 µM): 1.17
relative viability ([2]; first compound 15.81 µM): 1.18
relative viability ([2]; first compound 50 µM): 1.18
relative viability ([2]; first compound 158.11 µM): 0.559
relative viability ([2]; first compound 500 µM): 0.019
relative viability ([3]; first compound 5 µM): 0.735
relative viability ([3]; first compound 15.81 µM): 0.453
relative viability ([3]; first compound 50 µM): 0.402
relative viability ([3]; first compound 158.11 µM): 0.221
relative viability ([3]; first compound 500 µM): 0.0094
relative viability ([4]; first compound 5 µM): 0.983
relative viability ([4]; first compound 15.81 µM): 0.857
relative viability ([4]; first compound 50 µM): 0.86
relative viability ([4]; first compound 158.11 µM): 0.874
relative viability ([4]; first compound 500 µM): 0.868
relative viability ([5]; first compound 5 µM): 0.979
relative viability ([5]; first compound 15.81 µM): 0.897
relative viability ([5]; first compound 50 µM): 0.895
relative viability ([5]; first compound 158.11 µM): 0.818
relative viability ([5]; first compound 500 µM): 0.773
relative viability ([6]; first compound 5 µM): 0.684
relative viability ([6]; first compound 15.81 µM): 0.769
relative viability ([6]; first compound 50 µM): 0.743
relative viability ([6]; first compound 158.11 µM): 0.347
relative viability ([6]; first compound 500 µM): 0.0758
relative viability ([7]; first compound 5 µM): 0.842
relative viability ([7]; first compound 15.81 µM): 1.09
relative viability ([7]; first compound 50 µM): 1.03
relative viability ([7]; first compound 158.11 µM): 0.412
relative viability ([7]; first compound 500 µM): 0.12
relative viability ([8]; first compound 5 µM): 0.251
relative viability ([8]; first compound 15.81 µM): 0.343
relative viability ([8]; first compound 50 µM): 0.2
relative viability ([8]; first compound 158.11 µM): 0.216
relative viability ([8]; first compound 500 µM): 0.0496
relative viability ([9]; first compound 5 µM): 1.04
relative viability ([9]; first compound 15.81 µM): 0.956
relative viability ([9]; first compound 50 µM): 0.905
relative viability ([9]; first compound 158.11 µM): 0.544
relative viability ([9]; first compound 500 µM): 0.0935
relative viability ([10]; first compound 5 µM): 0.878
relative viability ([10]; first compound 15.81 µM): 0.751
relative viability ([10]; first compound 50 µM): 0.816
relative viability ([10]; first compound 158.11 µM): 0.625
relative viability ([10]; first compound 500 µM): 0.576
relative viability ([11]; first compound 5 µM): 0.881
relative viability ([11]; first compound 15.81 µM): 1
relative viability ([11]; first compound 50 µM): 0.992
relative viability ([11]; first compound 158.11 µM): 0.282
relative viability ([11]; first compound 500 µM): 0.0946
